Data on 37 molecules can be found in ChEMBL document CHEMBL6134830, “Naturally inspired chimeric quinolone derivatives to reverse bacterial drug resistance” (Eur J Med Chem, 2025).

≈ marks a conversion by molar mass, not a printed value. A value given as a limit tells only on which side of the number the result lay.

The experiment concerns Staphylococcus aureus. Description: Antimicrobial activity against Staphylococcus aureus ATCC 25923 assessed as inhibition of bacterial growth measured after 20 hrs by CLSI protocol based Muller Hinton broth assay. The format is functional.
Broadly, the MIC is the lowest concentration that inhibits growth of the organism. On to `CCCCCCCCCCCCNC(=O)[C@H](CCCCN)NC(=O)[C@H](CCCCN)NC(=O)c1ccc(C(=O)N2CCN(c3cc4c(cc3F)c(=O)c(C(=O)O)cn4C3CC3)CC2)cc1`, for which the minimum inhibitory concentration (MIC) was 25 µg/mL (≈ 27.7 µM).

As to `CCCCCCCCCCCCNC(=O)[C@H](CCCCN)NC(=O)c1ccc(C(=O)N2CCN(c3cc4c(cc3F)c(=O)c(C(=O)O)cn4C3CC3)CC2)cc1`, the MIC is 50 µg/mL (≈ 64.5 µM).

Consider `CCCCCCCCCNC(=O)[C@H](Cc1c[nH]cn1)NC(=O)[C@H](CCCCN)NC(=O)[C@H](CCCCN)NC(=O)c1ccc(C(=O)N2CCN(c3cc4c(cc3F)c(=O)c(C(=O)O)cn4C3CC3)CC2)cc1`, for which the MIC worked out at 6.25 µg/mL (≈ 6.26 µM).

With `CCCCCCCCCNC(=O)[C@H](CCCCN)NC(=O)[C@H](CCCCN)NC(=O)[C@H](CCCNC(=N)N)NC(=O)c1ccc(C(=O)N2CCN(c3cc4c(cc3F)c(=O)c(C(=O)O)cn4C3CC3)CC2)cc1`, the MIC stood at 3.12 µg/mL (≈ 3.07 µM).

On to `NCCCC[C@H](NC(=O)c1ccc(C(=O)N2CCN(c3cc4c(cc3F)c(=O)c(C(=O)O)cn4C3CC3)CC2)cc1)C(=O)NCc1ccccc1Cl`, for which the MIC is 25 µg/mL (≈ 34.2 µM).

For `CCCCCCCCCCCCNC(=O)[C@H](CCCCN)NC(=O)[C@H](CCCCN)NC(=O)[C@H](CCCCN)NC(=O)c1ccc(C(=O)N2CCN(c3cc4c(cc3F)c(=O)c(C(=O)O)cn4C3CC3)CC2)cc1`, the minimum inhibitory concentration (MIC) was found to be 6.25 µg/mL (≈ 6.06 µM).

`CCCCCCCCCCCCCCNC(=O)[C@H](CCCCN)NC(=O)c1ccc(C(=O)N2CCN(c3cc4c(cc3F)c(=O)c(C(=O)O)cn4C3CC3)CC2)cc1`: the minimum inhibitory concentration (MIC) came to 25 µg/mL (≈ 31.1 µM).

With `CCCCCCCCCCCCNC(=O)[C@H](CCCCN)NC(=O)[C@H](CCCCN)NC(=O)[C@H](CCCCN)NC(=O)CCNC(=O)CCNC(=O)CCC(=O)N1CCN(c2cc3c(cc2F)c(=O)c(C(=O)O)cn3C2CC2)CC1`, the MIC was determined as 6.25 µg/mL (≈ 5.55 µM).

`CCCCCCCCCCNC(=O)[C@H](CCCCN)NC(=O)[C@H](CCCCN)NC(=O)[C@H](CCCCN)NC(=O)c1ccc(C(=O)N2CCN(c3cc4c(cc3F)c(=O)c(C(=O)O)cn4C3CC3)CC2)cc1`: the minimum inhibitory concentration (MIC) was determined as 3.12 µg/mL (≈ 3.11 µM).

Consider `CCCCCCNC(=O)[C@H](CCCCN)NC(=O)c1ccc(C(=O)N2CCN(c3cc4c(cc3F)c(=O)c(C(=O)O)cn4C3CC3)CC2)cc1`, for which the minimum inhibitory concentration (MIC) stood at 25 µg/mL (≈ 36.2 µM).

As for `NCCCC[C@H](NC(=O)c1ccc(C(=O)N2CCN(c3cc4c(cc3F)c(=O)c(C(=O)O)cn4C3CC3)CC2)cc1)C(=O)NCc1c(F)cccc1Cl`, the MIC was 25 µg/mL (≈ 33.4 µM).

As to `CCCCCCCCCCCC(=O)N[C@@H](Cc1c[nH]cn1)C(=O)N1CCN(c2cc3c(cc2F)c(=O)c(C(=O)O)cn3C2CC2)CC1`, the minimal inhibitory concentration (MIC) came out at 6.25 µg/mL (≈ 9.6 µM).

In the case of `N=C(N)NCCC[C@H](N)C(=O)N1CCN(c2cc3c(cc2F)c(=O)c(C(=O)O)cn3C2CC2)CC1`, the minimal inhibitory concentration (MIC) was at least 12.5 µg/mL.

As to `CCCCCCCCCCCCNC(=O)[C@H](CCCCN)NC(=O)[C@H](CCCCN)NC(=O)[C@H](CCCCN)NC(=O)CCCCCCNC(=O)CCC(=O)N1CCN(c2cc3c(cc2F)c(=O)c(C(=O)O)cn3C2CC2)CC1`, the MIC stood at 12.5 µg/mL (≈ 11.3 µM).

With `NCCCC[C@H](N)C(=O)N1CCN(c2cc3c(cc2F)c(=O)c(C(=O)O)cn3C2CC2)CC1`, the minimum inhibitory concentration (MIC) was at least 12.5 µg/mL.

In the case of `CCCCCCCCCCCCNC(=O)[C@H](CCCCN)NC(=O)[C@H](CCCCN)NC(=O)[C@H](CCCCN)NC(=O)COCCOCCNC(=O)CCC(=O)N1CCN(c2cc3c(cc2F)c(=O)c(C(=O)O)cn3C2CC2)CC1`, the MIC stood at 12.5 µg/mL (≈ 11.1 µM).

On to `CCCCCCCCNC(=O)[C@H](CCCCN)NC(=O)[C@H](CCCCN)NC(=O)[C@H](CCCCN)NC(=O)c1ccc(C(=O)N2CCN(c3cc4c(cc3F)c(=O)c(C(=O)O)cn4C3CC3)CC2)cc1`, for which the minimal inhibitory concentration (MIC) was determined as 3.12 µg/mL (≈ 3.2 µM).

As to `CCCCCCCCCNC(=O)[C@H](CCCNC(=N)N)NC(=O)[C@H](CCCNC(=N)N)NC(=O)[C@H](CCCNC(=N)N)NC(=O)c1ccc(C(=O)N2CCN(c3cc4c(cc3F)c(=O)c(C(=O)O)cn4C3CC3)CC2)cc1`, the MIC was over 50 µg/mL.

Turning to `CCCCCCCCCNC(=O)[C@H](CCCNC(=N)N)NC(=O)[C@H](CCCCN)NC(=O)[C@H](CCCCN)NC(=O)c1ccc(C(=O)N2CCN(c3cc4c(cc3F)c(=O)c(C(=O)O)cn4C3CC3)CC2)cc1`, the minimal inhibitory concentration (MIC) was 3.12 µg/mL (≈ 3.07 µM).

In the case of `CCCCCCCCCCNC(=O)[C@H](CCCCN)NC(=O)[C@H](CCCCN)NC(=O)c1ccc(C(=O)N2CCN(c3cc4c(cc3F)c(=O)c(C(=O)O)cn4C3CC3)CC2)cc1`, the MIC came to 6.25 µg/mL (≈ 7.14 µM).

Consider `CCCCCCCCCCCCNC(=O)[C@H](CCCCN)NC(=O)[C@H](CCCCN)NC(=O)[C@H](CCCCN)NC(=O)CCNC(=O)CCC(=O)N1CCN(c2cc3c(cc2F)c(=O)c(C(=O)O)cn3C2CC2)CC1`, for which the MIC was over 50 µg/mL.

For `N[C@@H](Cc1c[nH]cn1)C(=O)N1CCN(c2cc3c(cc2F)c(=O)c(C(=O)O)cn3C2CC2)CC1`, the minimal inhibitory concentration (MIC) is at least 12.5 µg/mL.

`CCCCCCCCCCCCCCCCNC(=O)[C@H](CCCCN)NC(=O)c1ccc(C(=O)N2CCN(c3cc4c(cc3F)c(=O)c(C(=O)O)cn4C3CC3)CC2)cc1`: the minimum inhibitory concentration (MIC) is over 100 µg/mL.

With `CCCCCNC(=O)[C@H](CCCCN)NC(=O)c1ccc(C(=O)N2CCN(c3cc4c(cc3F)c(=O)c(C(=O)O)cn4C3CC3)CC2)cc1`, the MIC turned out to be 25 µg/mL (≈ 36.9 µM).

Regarding `CCCCCCCCNC(=O)[C@H](CCCCN)NC(=O)c1ccc(C(=O)N2CCN(c3cc4c(cc3F)c(=O)c(C(=O)O)cn4C3CC3)CC2)cc1`, the MIC was 12.5 µg/mL (≈ 17.4 µM).

`CCCCCCCCCNC(=O)[C@H](CCCCN)NC(=O)[C@H](CCCCN)NC(=O)[C@H](CCCCN)NC(=O)c1ccc(C(=O)N2CCN(c3cc4c(cc3F)c(=O)c(C(=O)O)cn4C3CC3)CC2)cc1`: the MIC was 3.12 µg/mL (≈ 3.16 µM).

Turning to `NCCCC[C@H](NC(=O)c1ccc(C(=O)N2CCN(c3cc4c(cc3F)c(=O)c(C(=O)O)cn4C3CC3)CC2)cc1)C(=O)NCc1c(Cl)cccc1Cl`, the minimum inhibitory concentration (MIC) came out at 12.5 µg/mL (≈ 16.3 µM).

As for `CCCCCCCCCNC(=O)[C@H](CCCCN)NC(=O)[C@H](CCCCN)NC(=O)c1ccc(C(=O)N2CCN(c3cc4c(cc3F)c(=O)c(C(=O)O)cn4C3CC3)CC2)cc1`, the minimal inhibitory concentration (MIC) came to 6.25 µg/mL (≈ 7.26 µM).

As to `NCCCC[C@H](NC(=O)c1ccc(C(=O)N2CCN(c3cc4c(cc3F)c(=O)c(C(=O)O)cn4C3CC3)CC2)cc1)C(=O)NCc1ccc(-c2ccccc2)cc1`, the MIC was determined as 50 µg/mL (≈ 64.7 µM).

On to `CCCCCCCCCNC(=O)[C@H](CCCCN)NC(=O)c1ccc(C(=O)N2CCN(c3cc4c(cc3F)c(=O)c(C(=O)O)cn4C3CC3)CC2)cc1`, for which the MIC is 6.25 µg/mL (≈ 8.53 µM).

With `CCCCCCCCCCCCNC(=O)[C@H](CCCCN)NC(=O)[C@H](CCCCN)NC(=O)[C@H](CCCCN)NC(=O)CCC(=O)N1CCN(c2cc3c(cc2F)c(=O)c(C(=O)O)cn3C2CC2)CC1`, the minimum inhibitory concentration (MIC) was over 50 µg/mL.

As to `CCCCCCCCCCCCCCCCNC(=O)[C@H](CCCCN)NC(=O)[C@H](CCCCN)NC(=O)[C@H](CCCCN)NC(=O)c1ccc(C(=O)N2CCN(c3cc4c(cc3F)c(=O)c(C(=O)O)cn4C3CC3)CC2)cc1`, the minimum inhibitory concentration (MIC) is over 50 µg/mL.

On to `O=C(Cc1ccc(-c2ccccc2)cc1)N[C@@H](Cc1c[nH]cn1)C(=O)N1CCN(c2cc3c(cc2F)c(=O)c(C(=O)O)cn3C2CC2)CC1`, for which the MIC amounted to 6.25 µg/mL (≈ 9.43 µM).

As for `CCCCCCCCCCCC(=O)N[C@@H](CCCNC(=N)N)C(=O)N1CCN(c2cc3c(cc2F)c(=O)c(C(=O)O)cn3C2CC2)CC1`, the MIC was determined as 6.25 µg/mL (≈ 9.33 µM).

In the case of `CCCCCCCCCC(=O)N[C@@H](CCCCN)C(=O)N1CCN(c2cc3c(cc2F)c(=O)c(C(=O)O)cn3C2CC2)CC1`, the MIC worked out at 6.25 µg/mL (≈ 10.2 µM).

Regarding `O=C(CC12CC3CC(CC(C3)C1)C2)N[C@@H](Cc1c[nH]cn1)C(=O)N1CCN(c2cc3c(cc2F)c(=O)c(C(=O)O)cn3C2CC2)CC1`, the MIC came to 6.25 µg/mL (≈ 9.69 µM).

As for `NCCCC[C@H](NC(=O)c1ccc(C(=O)N2CCN(c3cc4c(cc3F)c(=O)c(C(=O)O)cn4C3CC3)CC2)cc1)C(=O)NCc1ccccc1`, the minimal inhibitory concentration (MIC) is 25 µg/mL (≈ 35.9 µM).
